Test results taken from ChEMBL document CHEMBL3593235, “Discovery of xanthine oxidase inhibitors and/or α-glucosidase inhibitors by carboxyalkyl derivatization based on the flavonoid of apigenin” (Bioorg Med Chem Lett, 2015).
Active and inactive are the calls of the source. The calls are words filed in the database; no cut-off is given here.

Tests used:
[1] = target: Xanthine dehydrogenase/oxidase (Homo sapiens, UniProt P47989); assay: Inhibition of xanthine oxidase (unknown origin) using xanthine as substrate preincubated for 15 mins followed by substrate addition measured after 30 mins by spectrophotometric analysis
Sequence of Xanthine dehydrogenase/oxidase (P47989 whole entry): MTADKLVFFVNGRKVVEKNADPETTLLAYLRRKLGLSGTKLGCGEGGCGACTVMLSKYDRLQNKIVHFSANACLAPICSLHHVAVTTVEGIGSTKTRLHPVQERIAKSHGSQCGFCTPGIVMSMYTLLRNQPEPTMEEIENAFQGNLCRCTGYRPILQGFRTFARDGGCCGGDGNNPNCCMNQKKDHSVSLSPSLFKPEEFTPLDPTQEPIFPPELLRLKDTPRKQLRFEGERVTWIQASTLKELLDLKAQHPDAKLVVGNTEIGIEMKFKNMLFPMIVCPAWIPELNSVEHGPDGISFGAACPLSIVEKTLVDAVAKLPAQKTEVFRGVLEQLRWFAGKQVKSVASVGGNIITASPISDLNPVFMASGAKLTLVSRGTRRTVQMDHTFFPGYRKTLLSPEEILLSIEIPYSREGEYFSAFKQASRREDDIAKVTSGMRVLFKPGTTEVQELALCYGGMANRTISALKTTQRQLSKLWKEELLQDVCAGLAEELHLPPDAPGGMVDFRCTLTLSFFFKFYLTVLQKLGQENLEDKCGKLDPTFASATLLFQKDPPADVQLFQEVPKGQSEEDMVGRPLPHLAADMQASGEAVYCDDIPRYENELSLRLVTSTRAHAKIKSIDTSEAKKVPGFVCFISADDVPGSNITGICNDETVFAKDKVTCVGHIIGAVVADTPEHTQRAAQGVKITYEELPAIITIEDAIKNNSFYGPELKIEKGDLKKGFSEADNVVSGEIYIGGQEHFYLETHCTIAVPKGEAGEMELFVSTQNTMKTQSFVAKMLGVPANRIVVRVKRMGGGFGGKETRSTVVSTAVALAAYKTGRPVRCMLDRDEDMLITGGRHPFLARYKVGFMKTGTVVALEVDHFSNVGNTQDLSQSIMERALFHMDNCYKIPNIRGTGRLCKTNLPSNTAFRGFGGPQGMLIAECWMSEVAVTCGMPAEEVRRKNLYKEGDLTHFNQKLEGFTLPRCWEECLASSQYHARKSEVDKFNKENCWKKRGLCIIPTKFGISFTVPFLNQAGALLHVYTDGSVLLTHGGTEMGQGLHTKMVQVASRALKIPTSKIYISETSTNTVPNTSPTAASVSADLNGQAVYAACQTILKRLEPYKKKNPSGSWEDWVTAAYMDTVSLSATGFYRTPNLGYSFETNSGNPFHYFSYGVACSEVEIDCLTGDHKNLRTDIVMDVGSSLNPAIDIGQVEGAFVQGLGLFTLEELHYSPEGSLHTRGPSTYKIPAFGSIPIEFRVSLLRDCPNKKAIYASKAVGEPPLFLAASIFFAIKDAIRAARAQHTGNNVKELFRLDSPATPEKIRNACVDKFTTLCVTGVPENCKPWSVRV

[2] = Inhibition of alpha glucosidase (unknown origin) using para-nitrophenyl-alpha-D-glucopyranoside as substrate preincubated for 15 mins followed by substrate addition measured after 10 mins by spectrophotometric analysis; set-up: species or system Homo sapiens
[3] = system: Mus musculus; assay: Hypouricemic activity in ICR mouse assessed as decrease in potassium oxonate-induced serum uric acid level at 10 mg/kg, ip after 1 hr by Uricase colorimetric method; format: functional, organism-based
[4] = system: Mus musculus; assay: Hypoglycemic activity in ICR mouse assessed as decrease in elevated postprandial blood glucose level at 20 mg/kg, po administered 30 mins prior to sucrose challenge measured after 30 mins by OSTT; format: functional, organism-based
[5] = system: Mus musculus; assay: Hypoglycemic activity in ICR mouse assessed as decrease in elevated postprandial blood glucose level at 20 mg/kg, po administered 30 mins prior to glucose challenge measured after 30 mins by OGTT; format: functional, organism-based

SMILES | IC50 [1] | IC50 [2] | Activity [3] | Activity [4] | Activity [5]
O=C(O)CCCCCCOc1ccc(-c2cc(=O)c3c(O)cc(O)cc3o2)cc1 | 0.098 µM | > 500 µM | Active |  | 
O=C(O)CCCCOc1ccc(-c2cc(=O)c3c(O)cc(O)cc3o2)cc1 | 0.22 µM | > 500 µM |  |  | 
O=C(O)CCCCCOc1cc(O)cc2oc(-c3ccc(O)cc3)cc(=O)c12 |  | 26.2 µM |  | Active | inactive
O=C(O)CCCOc1cc(O)cc2oc(-c3ccc(O)cc3)cc(=O)c12 |  | 35.9 µM |  |  | 
O=C(O)CCCCCCCOc1ccc(-c2cc(=O)c3c(O)cc(O)cc3o2)cc1 | 0.25 µM | > 500 µM |  |  | 
O=C(O)CCCCOc1cc(O)cc2oc(-c3ccc(O)cc3)cc(=O)c12 |  | 39 µM |  | inactive | inactive
O=C(O)CCCOc1ccc(-c2cc(=O)c3c(O)cc(O)cc3o2)cc1 | 0.6 µM | > 500 µM |  |  | 
O=C(O)CCCOc1cc(O)c2c(=O)cc(-c3ccc(O)cc3)oc2c1 | > 100 µM | 44.5 µM |  |  | 
Oc1ncnc2[nH]ncc12 |  |  | Active |  | 
O=C(O)CCCCCCOc1cc(O)cc2oc(-c3ccc(O)cc3)cc(=O)c12 |  | 51.4 µM |  | Active | inactive
C[C@H]1O[C@H](O[C@H]2[C@H](O)[C@@H](O)[C@@H](O[C@H]3[C@H](O)[C@@H](O)C(O)O[C@@H]3CO)O[C@@H]2CO)[C@H](O)[C@@H](O)[C@@H]1N[C@H]1C=C(CO)[C@@H](O)[C@H](O)[C@H]1O (some centres undefined) [ACARBOSE] |  | 222 µM |  | Active | 
O=c1cc(-c2ccc(O)cc2)oc2cc(O)cc(O)c12 [APIGENIN] | 3.2 µM | 24.3 µM | inactive | inactive | 
O=C(O)COc1cc(O)cc2oc(-c3ccc(O)cc3)cc(=O)c12 |  | 113 µM |  |  | 
O=C(O)CCCCCCOc1cc(O)c2c(=O)cc(-c3ccc(O)cc3)oc2c1 | > 100 µM | 90.4 µM |  |  | 
O=C(O)CCCCCCCOc1cc(O)c2c(=O)cc(-c3ccc(O)cc3)oc2c1 | > 100 µM | 18.3 µM |  | inactive | inactive
O=C(O)CCCCOc1cc(O)c2c(=O)cc(-c3ccc(O)cc3)oc2c1 | > 100 µM | 33.7 µM |  |  | 
O=C(O)CCCCCCCOc1cc(O)cc2oc(-c3ccc(O)cc3)cc(=O)c12 |  | > 500 µM |  |  | 
O=C(O)CCCCCOc1ccc(-c2cc(=O)c3c(O)cc(O)cc3o2)cc1 | 0.32 µM | > 500 µM |  |  | 
O=C(O)COc1cc(O)c2c(=O)cc(-c3ccc(O)cc3)oc2c1 |  | 61.2 µM |  |  | 
O=C(O)CCCCCOc1cc(O)c2c(=O)cc(-c3ccc(O)cc3)oc2c1 | > 100 µM | 101 µM |  |  | 
O=C(O)COc1ccc(-c2cc(=O)c3c(O)cc(O)cc3o2)cc1 |  | > 500 µM |  |  | 
